Usually IC50 stands for the concentration that inhibits the measured activity by half.

The source made the active and inactive calls. No cut-off for these calls is given here.

The test system of data set [1] is Leishmania donovani. As to the kind of experiment: Antiparasitic activity against Leishmania donovani MHOM-ET-67/L82 axenic amastigotes assessed as growth inhibition at 0.8 ug/ml after 72 hrs by resazurin dye-based fluorometric analysis relative to control. Conditions: MHOM-ET-67/L82, 72 h, read-out: GI. Format: functional. A general note: Alamar Blue is a resazurin reagent that responds to reducing activity.

Data set [2] has as its system Leishmania donovani. Description: Antiparasitic activity against Leishmania donovani MHOM-ET-67/L82 axenic amastigotes assessed as growth inhibition at 4.8 ug/ml after 72 hrs by resazurin dye-based fluorometric analysis relative to control. The data set is classed as functional. To be noted: MHOM-ET-67/L82, 72 h, read-out: GI.
The test system of data set [3] is Trypanosoma cruzi. As to the kind of experiment: Antiparasitic activity against Trypanosoma cruzi Tulahuen C4 intracellular amastigotes infected in rat L6 cells assessed as growth inhibition at 0.8 ug/ml after 96 hrs by CPRG/Nonidet reagent based photometric analysis relative to control. The data set is classed as functional. Conditions: Tulahuen C4, L6, 96 h, read-out: GI.

In data set [4] the test system is Trypanosoma cruzi. As to the kind of experiment: Antiparasitic activity against Trypanosoma cruzi Tulahuen C4 intracellular amastigotes infected in rat L6 cells assessed as growth inhibition at 4.8 ug/ml after 96 hrs by CPRG/Nonidet reagent based photometric analysis relative to control. The data set is classed as functional. Conditions: Tulahuen C4, L6, 96 h, read-out: GI.

Data set [5] has as its system Plasmodium falciparum. As to the kind of experiment: Antiparasitic activity against intraerythrocytic form of chloroquine/pyrimethamine-resistant Plasmodium falciparum K1 infected in human RBC assessed as growth inhibition at 0.8 ug/ml preincubated for 48 hrs followed by [3H]-hypoxanthine addition measured after 24 hrs by liquid scintillation counting analysis relative to control. Format: functional. Conditions: read-out: GI.

In data set [6] the test system is Plasmodium falciparum. As to the kind of experiment: Antiparasitic activity against intraerythrocytic form of chloroquine/pyrimethamine-resistant Plasmodium falciparum K1 infected in human RBC assessed as growth inhibition at 4.8 ug/ml preincubated for 48 hrs followed by [3H]-hypoxanthine addition measured after 24 hrs by liquid scintillation counting analysis relative to control. The data set is classed as functional. Conditions: read-out: GI.

The subject of data set [7] is Trypanosoma brucei rhodesiense. As to the kind of experiment: Antiparasitic activity against Trypanosoma brucei rhodesiense STIB 900 trypomastigote bloodstream form assessed as growth inhibition at 0.8 ug/ml after 72 hrs by resazurin dye-based fluorometric analysis relative to control. Format: functional. Conditions: STIB 900, 72 h, read-out: GI.
The test system of data set [8] is Trypanosoma brucei rhodesiense. As to the kind of experiment: Antiparasitic activity against Trypanosoma brucei rhodesiense STIB 900 trypomastigote bloodstream form assessed as growth inhibition at 4.8 ug/ml after 72 hrs by resazurin dye-based fluorometric analysis relative to control. Format: functional. Conditions: STIB 900, 72 h, read-out: GI.
For data set [9], the system named is Trypanosoma cruzi. Description: Antiparasitic activity against Trypanosoma cruzi Tulahuen C4 intracellular amastigotes infected in rat L6 cells after 96 hrs by CPRG/Nonidet reagent based photometric analysis. To be noted: Tulahuen C4, L6, 96 h. Format: functional, cell-based.
A further data set relates to L6. As to the kind of experiment: Cytotoxicity against rat L6 cells assessed as cell viability after 72 hrs by Alamar blue assay. To be noted: L6, 72 h. The data set is classed as cell-based.
Data set [10] is described as follows: Selectivity index, ratio of IC50 for rat L6 cells to IC50 for Trypanosoma cruzi Tulahuen C4 intracellular amastigotes infected in rat L6 cells. The data set is classed as toxicity, cell-based. To be noted: read-out: Ratio IC50.
Data set [11] relates to Plasmodium falciparum. As to the kind of experiment: Antiparasitic activity against intraerythrocytic form of chloroquine/pyrimethamine-resistant Plasmodium falciparum K1 infected in human RBC preincubated for 48 hrs followed by [3H]-hypoxanthine addition measured after 24 hrs by liquid scintillation counting analysis. Format: functional.

As to `CC1Cc2ccccc2N1S(=O)(=O)c1ccc(Br)cc1` (configuration not stated), the inhibition of growth at 0.8 µg/mL in the data set on Leishmania donovani [1] worked out at 17.6%; in the data set on Trypanosoma cruzi [3], 0%; in the data set with Plasmodium falciparum [5] it was 9.1%; in data set [7], 0%. Moreover, the inhibition of growth at 4.8 µg/mL in the data set with Leishmania donovani [2] is 81.4%; in the data set on Trypanosoma cruzi [4], 100%; with Plasmodium falciparum [6] it was 76%; in [8] it was 0.9%. Further, the IC50 with Trypanosoma cruzi [9] worked out at 5.76 µM; with L6 it was 13.2 µM. Also, the selectivity ratio in data set [10] stood at 2.29.
As to `O=S(=O)(c1ccccc1)N1CCc2ccccc21`, the inhibition of growth at 0.8 µg/mL was 7.4% in the data set on Leishmania donovani [1], 0% in the data set with Trypanosoma cruzi [3], 2.9% in the data set with Plasmodium falciparum [5] and 0% in data set [7]. For the same molecule, the inhibition of growth at 4.8 µg/mL was found to be 45.3% in the data set with Leishmania donovani [2], 10% in the data set with Trypanosoma cruzi [4], 29.1% in the data set on Plasmodium falciparum [6] and 0% in data set [8]. Also, the result in the data set with Plasmodium falciparum [11] was Active.
Turning to `CC1Cc2ccccc2N1S(=O)(=O)c1ccc(Cl)cc1` (configuration not stated), the inhibition of growth at 0.8 µg/mL was 9% in the data set with Leishmania donovani [1], 0% in the data set with Trypanosoma cruzi [3], 17.7% with Plasmodium falciparum [5] and 6.5% in data set [7]. In addition, the inhibition of growth at 4.8 µg/mL in the data set with Leishmania donovani [2] was 83.3%; with Trypanosoma cruzi [4], 100%; in the data set on Plasmodium falciparum [6], 87.9%; in [8], 4%. The results for the IC50 in the data set with Trypanosoma cruzi [9] and in the data set with L6 were 4.79 µM and 11.1 µM, respectively. Further, the selectivity ratio in data set [10] amounted to 2.31.
Consider `COc1ccc(S(=O)(=O)N2c3ccccc3CC2C)cc1` (configuration not stated), for which the inhibition of growth at 0.8 µg/mL with Leishmania donovani [1] was 2.9%; with Trypanosoma cruzi [3] it was 1.8%; in the data set with Plasmodium falciparum [5] it was 5.3%; in data set [7], 1.2%. Besides, the inhibition of growth at 4.8 µg/mL in the data set with Leishmania donovani [2] came to 35%; with Trypanosoma cruzi [4], 100%; with Plasmodium falciparum [6], 49.3%; in data set [8], 4.4%. Besides, the IC50 came out at 9.46 µM in the data set with Trypanosoma cruzi [9] and 0.44 µM in the data set on L6. For the same molecule, the selectivity ratio in data set [10] worked out at 0.04.
In the case of `CC1Cc2ccccc2N1S(=O)(=O)c1ccccc1` (configuration not stated), the inhibition of growth at 0.8 µg/mL in the data set on Leishmania donovani [1] came to 12.5%; in the data set with Trypanosoma cruzi [3], 0%; in the data set on Plasmodium falciparum [5], 13.2%; in data set [7], 4.6%. Further, the inhibition of growth at 4.8 µg/mL in the data set on Leishmania donovani [2] came out at 27.9%; with Trypanosoma cruzi [4], 5.2%; with Plasmodium falciparum [6] it was 46.4%; in [8] it was 0%. For the same molecule, in the data set on Plasmodium falciparum [11], the outcome was Active.
Consider `O=S(=O)(c1ccccc1)n1ccc2ccccc21`, for which the result with Plasmodium falciparum [11] was Active.
As to `CC1CCc2ccccc2N1S(=O)(=O)c1ccc(C(F)(F)F)cc1` (configuration not stated), the inhibition of growth at 0.8 µg/mL was 29% with Leishmania donovani [1], 5.3% in the data set on Trypanosoma cruzi [3], 26.4% with Plasmodium falciparum [5] and 5.5% in data set [7]. Moreover, the inhibition of growth at 4.8 µg/mL in the data set on Leishmania donovani [2] came out at 96%; in the data set on Trypanosoma cruzi [4] it was 98.2%; in the data set with Plasmodium falciparum [6] it was 98.8%; in [8] it was 8.1%. Further, the IC50 in the data set on Trypanosoma cruzi [9] worked out at 5.89 µM; with L6 it was 12.2 µM. Also, in [10], the selectivity ratio amounted to 2.
Consider `O=[N+]([O-])c1ccc(S(=O)(=O)n2nnc3ccccc32)cc1`, for which, in the data set with Plasmodium falciparum [11], the result was Active.
As for `O=[N+]([O-])c1ccc(S(=O)(=O)n2ccc3ccccc32)cc1`, the inhibition of growth at 0.8 µg/mL in the data set with Leishmania donovani [1] is 24.2%; in the data set on Trypanosoma cruzi [3], 18.3%; with Plasmodium falciparum [5] it was 2.5%; in [7], 8.6%. The inhibition of growth at 4.8 µg/mL with Leishmania donovani [2] was determined as 77.6%; in the data set with Trypanosoma cruzi [4], 75%; with Plasmodium falciparum [6], 60.4%; in data set [8] it was 29.3%. For the same molecule, the result with Plasmodium falciparum [11] was Active.
With `O=S(=O)(c1ccccc1)n1nnc2ccccc21`, the outcome in the data set with Plasmodium falciparum [11] was Active.
In the case of `O=S(=O)(c1ccc(Cl)cc1)N1CCc2ccccc21`, the inhibition of growth at 0.8 µg/mL in the data set on Leishmania donovani [1] was 6.9%; in the data set on Trypanosoma cruzi [3], 0%; with Plasmodium falciparum [5], 3.7%; in data set [7], 0%. Besides, the inhibition of growth at 4.8 µg/mL in the data set with Leishmania donovani [2] was 73.6%; in the data set with Trypanosoma cruzi [4], 1.5%; in the data set on Plasmodium falciparum [6] it was 63.7%; in data set [8], 0%.
On to `Cc1ccc(S(=O)(=O)N2c3ccccc3CC2C)cc1` (configuration not stated), for which the inhibition of growth at 0.8 µg/mL was found to be 9.4% with Leishmania donovani [1], 0% in the data set on Trypanosoma cruzi [3], 7.7% in the data set on Plasmodium falciparum [5] and 3.5% in data set [7]. Further, the inhibition of growth at 4.8 µg/mL stood at 5.3% in the data set with Leishmania donovani [2], 93.4% with Trypanosoma cruzi [4], 53.1% in the data set with Plasmodium falciparum [6] and 0% in data set [8].
`CC1Cc2ccccc2N1S(=O)(=O)c1ccccc1[N+](=O)[O-]` (configuration not stated): the inhibition of growth at 0.8 µg/mL stood at 19.3% with Leishmania donovani [1], 0% with Trypanosoma cruzi [3], 14.8% in the data set with Plasmodium falciparum [5] and 6.3% in data set [7]. Further, the inhibition of growth at 4.8 µg/mL was 52.4% in the data set with Leishmania donovani [2], 15.1% with Trypanosoma cruzi [4], 50.5% in the data set on Plasmodium falciparum [6] and 9.6% in [8].
Regarding `O=S(=O)(c1ccc(Br)cc1)n1ccc2ccccc21`, the inhibition of growth at 0.8 µg/mL in the data set with Leishmania donovani [1] was found to be 11.5%; in the data set on Trypanosoma cruzi [3] it was 0%; in the data set with Plasmodium falciparum [5], 0%; in [7], 0%. Further, the inhibition of growth at 4.8 µg/mL in the data set with Leishmania donovani [2] came to 48.1%; with Trypanosoma cruzi [4], 0%; with Plasmodium falciparum [6] it was 45.9%; in [8] it was 0%.
Take `CC(=O)c1ccc(S(=O)(=O)n2nnc3ccccc32)cc1`: the inhibition of growth at 0.8 µg/mL amounted to 17.3% with Leishmania donovani [1], 0% with Trypanosoma cruzi [3], 0% in the data set with Plasmodium falciparum [5] and 2.8% in data set [7]. The inhibition of growth at 4.8 µg/mL in the data set with Leishmania donovani [2] came to 41.6%; in the data set on Trypanosoma cruzi [4], 6.1%; in the data set with Plasmodium falciparum [6] it was 5.6%; in data set [8] it was 4.9%.
Take `CC(=O)c1ccc(S(=O)(=O)n2ccc3ccccc32)cc1`: the inhibition of growth at 0.8 µg/mL stood at 0% in the data set on Leishmania donovani [1], 0% in the data set with Trypanosoma cruzi [3], 12.2% in the data set with Plasmodium falciparum [5] and 2.2% in data set [7]. Besides, the inhibition of growth at 4.8 µg/mL with Leishmania donovani [2] came to 25.9%; in the data set with Trypanosoma cruzi [4], 0%; with Plasmodium falciparum [6] it was 40.8%; in data set [8] it was 0%.
`CC1CCc2ccccc2N1S(=O)(=O)c1cccc(C(F)(F)F)c1` (configuration not stated): the inhibition of growth at 0.8 µg/mL worked out at 25.8% with Leishmania donovani [1], 5.4% in the data set with Trypanosoma cruzi [3], 5.8% in the data set with Plasmodium falciparum [5] and 1.8% in data set [7]. Moreover, the inhibition of growth at 4.8 µg/mL is 82.3% in the data set on Leishmania donovani [2], 95.6% in the data set with Trypanosoma cruzi [4], 81.3% in the data set with Plasmodium falciparum [6] and 0% in data set [8]. Besides, the IC50 with Trypanosoma cruzi [9] amounted to 6.6 µM; in the data set with L6, 13.1 µM. Also, the selectivity ratio in data set [10] was found to be 1.98.
Take `CC1Cc2ccccc2N1S(=O)(=O)c1cccc([N+](=O)[O-])c1` (configuration not stated): the inhibition of growth at 0.8 µg/mL in the data set on Leishmania donovani [1] was 26%; in the data set with Trypanosoma cruzi [3], 2.5%; with Plasmodium falciparum [5], 14.9%; in data set [7], 7%. Also, the inhibition of growth at 4.8 µg/mL with Leishmania donovani [2] came to 66.2%; in the data set with Trypanosoma cruzi [4], 31.6%; in the data set with Plasmodium falciparum [6], 62.6%; in data set [8], 12.6%.
For the molecule `O=[N+]([O-])c1cccc(S(=O)(=O)N2CCc3ccccc32)c1`, the inhibition of growth at 0.8 µg/mL in the data set with Leishmania donovani [1] was 15.9%; in the data set on Trypanosoma cruzi [3], 36.4%; with Plasmodium falciparum [5], 14.7%; in data set [7] it was 0%. Moreover, the inhibition of growth at 4.8 µg/mL with Leishmania donovani [2] stood at 95.4%; in the data set on Trypanosoma cruzi [4], 100%; in the data set with Plasmodium falciparum [6] it was 79.2%; in data set [8] it was 4.3%. Moreover, the IC50 is 1.08 µM in the data set with Trypanosoma cruzi [9] and 15.1 µM in the data set on L6. Also, in [10], the selectivity ratio was found to be 14.

The values above are taken from ChEMBL document CHEMBL4043153, “Lead selection of antiparasitic compounds from a focused library of benzenesulfonyl derivatives of heterocycles” (Bioorg Med Chem Lett, 2017).
